Data: paper PMC9413440, “An Iterative Approach Guides Discovery of the FabI Inhibitor Fabimycin, a Late-Stage Antibiotic Candidate with In Vivo Efficacy against Drug-Resistant Gram-Negative Infections” (ACS Central Science, 2022)
≈ marks a conversion by molar mass, not a printed value.

Key:
E. coli ΔtolC (JW5503) = test: MIC, broth microdilution (CLSI); assay type: cell-based, Escherichia coli
Method: (§1) II. Materials and Methods for Biological Experiments
(§2) S. aureus ATCC 29213 and E. coli MG1655 were obtained from the American Type Culture Collection (ATCC). E. coli BW25113 and E. coli JW5503 were obtained from the Keio Collection. AR-bank strains were obtained from the Centers for Disease Control and Prevention and FDA Antibiotic Resistance Isolate Bank.
(§3) Antimicrobial susceptibility tests
(§4) Susceptibility testing was performed in biological triplicate, unless noted otherwise, using the micro-dilution broth method as outlined by the Clinical and Laboratory Standards Institute. Bacteria were cultured with cation-adjusted Mueller Hinton broth (Sigma Aldrich, catalogue number: 90922). […]
(§5) NH3: m/z 391.2 → 171.0. Fabimycin: m/z 405.3 → 145.3. Power analysis was not used to determine the number of replicates. Error bars represent the standard error of the mean of three biological replicates. All compounds evaluated in biological assays were ≥95% pure.

[1] = design: method as in earlier work; settings: mice, 20% SBE-β-CD in H2O, IP, ref 19 (SI ref 3), cited from earlier work
A. baumannii AR-0299 = test: MIC, broth microdilution (CLSI); assay type: cell-based; settings: Acinetobacter baumannii, AR0299; A. baumannii AR-0299 clinical isolate; † = dose-independent trailing growth
Method: as §1, §2, §3, §4, §5

E. coli AR-0048 = test: MIC, broth microdilution (CLSI); assay type: cell-based; settings: Escherichia coli, AR0048; E. coli AR-0048 clinical isolate
Method: as §1, §2, §3, §4, §5

A. baumannii AR-0273 = test: MIC, broth microdilution (CLSI); assay type: cell-based; settings: Acinetobacter baumannii, AR0273; A. baumannii AR-0273 clinical isolate
Method: as §1, §2, §3, §4, §5

K. pneumoniae AR-0560 = test: MIC, broth microdilution (CLSI); assay type: cell-based; settings: Klebsiella pneumoniae, AR0560; K. pneumoniae AR-0560 clinical isolate
Method: as §1, §2, §3, §4, §5

A. baumannii AR-0033 = test: MIC, broth microdilution (CLSI); assay type: cell-based; settings: Acinetobacter baumannii, AR0033; A. baumannii AR-0033 clinical isolate; † = dose-independent trailing growth
Method: as §1, §2, §3, §4, §5

K. pneumoniae BAA-2472 = test: MIC, broth microdilution (CLSI); assay type: cell-based; settings: Klebsiella pneumoniae, BAA2472
Method: as §1, §2, §3, §4, §5

E. coli AR-0085 = test: MIC, broth microdilution (CLSI); assay type: cell-based; settings: Escherichia coli, AR0085; E. coli AR-0085 clinical isolate
Method: as §1, §2, §3, §4, §5

K. pneumoniae AR-0066 = test: MIC, broth microdilution (CLSI); assay type: cell-based; settings: Klebsiella pneumoniae, AR0066; K. pneumoniae AR-0066 clinical isolate
Method: as §1, §2, §3, §4, §5

E. coli FabI = target: T1, E. coli FabI (Escherichia coli, UniProt P0AEK4); test: In vitro FabI enzymatic inhibition assay; assay type: biochemical; settings: EcFabI; Morrison's quadratic fit; 5 nM enzyme; read-out: Ki app
T1 construct: His(6) with TEV site (cleaved yes); made in house; host or cells: E. coli BL21(DE3)
Method: (§6) supplemented with 100 µg/mL ampicillin at 37°C until OD600 reached 0.6-0.7. The cells were induced with 1mM IPTG and incubated for 20 hours at 18°C and spun down at 8000 rpm for 15 minutes. Cell pellet was resuspended in the lysis buffer (50 mM Tris-HCl pH 8.0, 500 mM Na Cl, 20 mM imidazole, 10% glycerol, 0.5 mM TCEP, protease inhibitor and Lysonase) and passed through microfluidizer followed by centrifugation and filtration to remove cell debris. The clarified lysate was supplemented with 20 mM imidazole and passed over a HisTrap column (Cytiva) pre-equilibrated with the wash buffer (50 mM Tris-HCl pH 8.0, 500 mM NaCl, 20 mM imidazole, 10% glycerol, 0.5 mM TCEP). The column was washed with the wash buffer and eluted over a 20-500 mM imidazole gradient. The appropriate fractions were pooled, and the histidine tag was removed by TEV cleavage. The protein mixture was passed over a HisTrap column to separate the cleaved protein from the uncleaved ones. The cleaved protein was pooled and passed over an S75 size exclusion column (GE LifeSciences) pre-equilibrated with 50 mM Tris-HCl pH 8.0, 500 mM NaCl, 0.5 mM TCEP and 10% glycerol. Fractions containing pure protein were pooled, concentrated at 10 mg/mL and stored at -80°C. […]
(§7) In vitro FabI enzymatic inhibition assay
(§8) Recombinant E. coli and A. baummani FabI enzymes were used in a continuous NADH absorbance assay (20 µL in 384w format). Compounds and the Crotonyl-CoA substrate (Sigma–Aldrich 28007) were dispensed into a plate (GeinerBio-One 781101). The reaction was initiated by the addition of a reaction master mix solution containing enzyme and NADH (Sigma–Aldrich N8129) suspended in reaction buffer (50 mM HEPES pH 7.4, 150 mM NaCl, 1 mM EDTA, 0.01 mg/mL BSA, 0.01% Tween). Final concentrations were 5 nM enzyme, 150 μM Crotonyl-CoA, 380 μM NADH, 0.05% DMSO in 1x reaction buffer. After shaking for 5 seconds the reaction was monitored at NADH absorbance (340nm, 25°C) using a Molecular Devices SpectraMax M5 microplate reader. The linear portion of the progress curve was fit using plate-reader software. Percentage activity was calculated relative to DMSO only and no-substrate controls in each plate and the data were fit to Morrison’s quadratic using Graphpad Prism 9.3 to obtain apparent inhibition constant (Ki app) values. […]
(§9) 480 Real-Time PCR System as a function of a temperature ramp (25-95°C; 0.1°/s) and the Tm was calculated using the […]

A. baumannii FabI = A. baumannii FabI (Acinetobacter baumannii, UniProt D0CAD5); test: In vitro FabI enzymatic inhibition assay; assay type: biochemical; settings: AbFabI; Morrison's quadratic fit; 5 nM enzyme; read-out: Ki app
Method: as §6, §7, §8, §9

A. baumannii AR-0313 = test: MIC, broth microdilution (CLSI); assay type: cell-based; settings: Acinetobacter baumannii, AR0313; A. baumannii AR-0313 clinical isolate; † = dose-independent trailing growth
Method: as §1, §2, §3, §4
(§10) Error bars represent the standard error of the mean of three biological replicates. All compounds evaluated in biological assays were ≥95% pure.

K. pneumoniae AR-0113 = test: MIC, broth microdilution (CLSI); assay type: cell-based; settings: Klebsiella pneumoniae, AR0113; K. pneumoniae AR-0113 clinical isolate
Method: as §1, §2, §3, §4, §10

E. coli MG1655 [2] = test system: E. coli MG1655; design: method as in PMID 31740764; settings: cited from earlier work
S. aureus ATCC 29213 = test: MIC, broth microdilution (CLSI); assay type: cell-based; settings: Staphylococcus aureus, ATCC29213; S. aureus 29213
Method: as §1, §2, §3, §4, §5

E. coli MG1655 [3] = test: MIC, broth microdilution (CLSI); assay type: cell-based; settings: Escherichia coli
Method: as §1, §2, §3, §4, §5

E. coli MG1655 [4] = test: Serial passaging; assay type: cell-based, Escherichia coli; settings: E. coli MG1655, subinhibitory concentration, 21 days
Method: Serial passaging procedure was done as reported in literature.5 Briefly, E. coli MG1655 cells were grown in 0.6 mL of MH media containing fabimycin and ciprofloxacin (control) at different concentrations. Cells were added to the respective compounds at 0.25X, 0.5X, 1X, 2X, and 4X to start. At 22-24 hours the cultures were checked for growth. […]
compound at varying concentrations based off of the MIC. This serial passaging was repeated for 21 days. […]
All cells were cultured […]
at 37 °C under a 5% CO2 environment. Cell lines were authenticated by a commercial vendor and inspected visually in house. Cell lines were not tested for Mycoplasma contamination. The media was prepared by the University of Illinois School of Chemical Sciences Cell Media Facility.
H. sapiens HFF-1, A549, and HepG2 cells were seeded (3,000-6,000 cells/well) in a 96-well plate (Greiner Bio-One;

[5] = test system: panel of 10 clinical isolates (two E. coli, four K. pneumoniae, four A. baumannii); test: MIC, Gram-negative clinical isolate challenge panel; assay type: cell-based; settings: 10 clinical isolates; read-out: MIC, all strains of the clinical isolate challenge panel
[6] = E. coli ΔtolC = JW5503, efflux-deficient

Chain of A. baumannii FabI (D0CAD5 entry or part of it): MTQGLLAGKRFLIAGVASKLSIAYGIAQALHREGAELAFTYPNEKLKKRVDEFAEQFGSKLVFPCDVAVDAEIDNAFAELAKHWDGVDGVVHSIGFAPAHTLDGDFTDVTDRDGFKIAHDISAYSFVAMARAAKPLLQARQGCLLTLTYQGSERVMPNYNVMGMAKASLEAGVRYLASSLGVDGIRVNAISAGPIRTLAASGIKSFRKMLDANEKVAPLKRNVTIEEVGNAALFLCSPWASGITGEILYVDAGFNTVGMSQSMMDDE
T1 sequence (P0AEK4 whole entry): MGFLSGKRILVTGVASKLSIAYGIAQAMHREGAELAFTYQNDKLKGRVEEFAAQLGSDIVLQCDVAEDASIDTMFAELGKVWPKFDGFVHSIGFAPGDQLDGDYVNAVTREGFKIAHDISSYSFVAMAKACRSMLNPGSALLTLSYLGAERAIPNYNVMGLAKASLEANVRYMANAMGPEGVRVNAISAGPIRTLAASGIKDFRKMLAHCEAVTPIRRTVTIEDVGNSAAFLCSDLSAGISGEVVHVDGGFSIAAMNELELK

SMILES | MIC (E. coli ΔtolC (JW5503); [6]) [µg/mL] | MIC (A. baumannii AR-0299) [µg/mL] | MIC (E. coli AR-0048) [µg/mL] | MIC (A. baumannii AR-0273) [µg/mL] | MIC (K. pneumoniae AR-0560) [µg/mL] | MIC (A. baumannii AR-0033) [µg/mL] | MIC (K. pneumoniae BAA-2472) [µg/mL] | MIC (E. coli AR-0085) [µg/mL] | MIC (K. pneumoniae AR-0066) [µg/mL] | Ki (E. coli FabI) [nM] | Ki (A. baumannii FabI) [nM] | MIC (A. baumannii AR-0313) [µg/mL] | MIC (K. pneumoniae AR-0113) [µg/mL] | accumulation in Gram-negative bacteria (class in Figure 1A) (E. coli MG1655 [2]) | MIC (E. coli ΔtolC (JW5503); Escherichia coli) [µg/mL] | MIC (S. aureus ATCC 29213) [µg/mL] | MIC (E. coli MG1655 [3]) [µg/mL] | further results
Cc1c(CN(C)C(=O)/C=C/c2cnc3c(c2)CC(N)C(=O)N3)oc2ccccc12 (stereo not shown) [Debio-1452-NH3, reference compound] | 0.062 (≈ 0.159 µM) | 32 (≈ 82 µM) | 32 (≈ 82 µM) | 32 (≈ 82 µM) | 32 (≈ 82 µM) | 32 (≈ 82 µM) | 16 (≈ 41 µM) | 16 (≈ 41 µM) | 32 (≈ 82 µM) | 9 ± 1 | 13 ± 2 | 32 (≈ 82 µM) | 32 (≈ 82 µM) | Accumulator |  |  |  | Multi-day QD dosing, MTD ([1]; 5d): 50 mg/kg; Single-dose MTD [1]: 50 mg/kg
Cc1c(CN(C)C(=O)/C=C/c2cnc3c(c2)CCC(CN)C(=O)N3)oc2ccccc12 (racemic) [(±)-8] |  | 32 (≈ 76.5 µM) | 16 (≈ 38.2 µM) | 32 (≈ 76.5 µM) | 16 (≈ 38.2 µM) | 16 (≈ 38.2 µM) | 32 (≈ 76.5 µM) | 8 (≈ 19.1 µM) | 32 (≈ 76.5 µM) |  |  | > 32 | 32 (≈ 76.5 µM) |  | 0.125 (≈ 0.299 µM) | 0.031 (≈ 0.0741 µM) | 8 (≈ 19.1 µM) | 
Cc1c(CN(C)C(=O)/C=C/c2cnc3c(c2)CCC(=O)N3)oc2ccccc12 [Debio-1452, reference compound] | 0.062 (≈ 0.165 µM) | > 32 | > 32 | > 32 | > 32 | > 32 | > 32 | > 32 | > 32 | 97 ± 19 | 431 ± 85 | > 32 | > 32 | Non-accumulator |  |  |  | 
O=C(O)c1cn(C2CC2)c2cc(N3CCNCC3)c(F)cc2c1=O [ciprofloxacin, reference compound] |  |  |  |  |  |  |  |  |  |  |  |  |  |  |  |  |  | increase in the MIC after serial passaging (E. coli MG1655 [4]): 128 fold
Cc1c(CN(C)C(=O)/C=C/c2cnc3c(c2)CCC(N)C(=O)N3)oc2ccccc12 (racemic) [(±)-7] |  | 4 (≈ 9.89 µM) | 4 (≈ 9.89 µM) | 8 (≈ 19.8 µM) | 8 (≈ 19.8 µM) | 4 (≈ 9.89 µM) | 8 (≈ 19.8 µM) | 4 (≈ 9.89 µM) | 8 (≈ 19.8 µM) |  |  | 8 (≈ 19.8 µM) | 8 (≈ 19.8 µM) |  | 0.031 (≈ 0.0766 µM) | 0.016 (≈ 0.0396 µM) | 4 (≈ 9.89 µM) | MIC [5]: ≤ 8 µg/mL
Cc1c(CN(C)C(=O)/C=C/c2cnc3c(c2)CCC(CCN)C(=O)N3)oc2ccccc12 (racemic) [(±)-9] |  |  |  |  |  |  |  |  |  |  |  |  |  |  | 0.125 (≈ 0.289 µM) | 0.062 (≈ 0.143 µM) | 32 (≈ 74 µM) | 
